The results in this text go back to patent publication US20070244110A1, “Treatment of prostate cancer, melanoma or hepatic cancer” (ZENYAKU KOGYO KABUSHIKI KAISHA, priority 2006, published 2007).

Molecules are shown by their SMILES.

Series [1] concerns PC-3 prostate cancer cells. Put plainly: In vitro anti-tumor experiment, growth inhibition of PC-3 cells. The format is cell-based. To be noted: Homo sapiens; PC-3, 72 hours incubation. The protocol: (§1) Hepatoma HepG2 cells were cultured in a MEM culture medium (containing 10% fetal bovine serum, 25 mM HEPES and 0.1 mg/ml kanamycin) under conditions of 5% carbon dioxide at 37° C. HepG2 cells were harvested as single free cells by a tripsin/EDTA treatment in the logarithmic growth phase, and a cell suspension solution consisted of 2×10^4 cells per ml was prepared with MEM culture medium (containing 10% fetal bovine serum, 25 mM HEPES and 0.1 mg/ml kanamycin). The test compound was dissolved in DMSO, then diluted with RPMI1640 culture medium (containing 10% fetal bovine serum, 25 mM HEPES, 0.1 mg/ml kanamycin), and adjusted to a concentration of 2.0×10^−9 to 2.0×10^−3 M.
(§2) 0.1 ml of the cell suspension solution was put in each well of a 96-well plate, then cultured for 24 hours to make the cells adhere to the microplates, and 0.1 ml of the test compound was added in each well and incubated for 72 hours under conditions of 5% carbon dioxide at 37° C. The 50% growth inhibition concentration (GI50 value μM) was computed from the growth inhibition rates at various test sample concentrations, and the results are shown in Table 1.
(§3) When using cells other than HepG2 cells, the following culture media were used instead of the MEM culture medium, and the following single cell suspensions were prepared with the following media:
PC-3 prostate cancer cells:
F12K culture medium containing 10% fetal bovine serum, 2×10^4 cell suspension

The next series relates to Hepatoma HepG2 cells. Briefly: In vitro anti-tumor experiment, growth inhibition of HepG2 cells. The series is classed as cell-based. To be noted: Homo sapiens; HepG2, 72 hours incubation. The protocol: as §1, §2
For the next series, the system named is B16F10 melanoma cells. Put plainly: In vitro anti-tumor experiment, growth inhibition of B16F10 cells. The format is cell-based. To be noted: Mus musculus, B16-F10; B16F10, 72 hours incubation. On the procedure: as §1, §2, §3
RPMI1640 culture medium containing 10% fetal bovine serum, 1×10^4 cell suspension

The test system of series [2] is PC-3 prostate cancer cells. Briefly: In vivo anti-tumor experiment, PC-3 human tumor xenograft. Also on record: species or system BALB/c nude mice. As to conditions: 6 days a week for two weeks, day 14. The protocol:
(§4) Human tumor xenografts were generated with PC-3 prostate cancer cells, and WiDr colon cancer cells, and were grown as subcutaneous tumors in mutant BALB/c nude mice. Each nude mouse was subcutaneously inoculated with a tumor fragment of 2 mm by 2 mm by 2 mm. When tumors reached a volume of 100-300 mm^3, animals were divided randomly into test groups of five mice (day 0). The samples were orally administered at a dosage of 100, 200 or 400 mg/kg once daily, 6 days a week for two weeks. The length (L) and width (W) of the subcutaneous tumor mass were measured by calipers in live mice, and the tumor volume (TV) was calculated as: TV=(L×W^2)/2. The tumor volume at day n was expressed as relative tumor volume (RTV), according to the formula RTV=TVn/TV0, where TVn is the tumor volume at day n, and TV0 is the tumor volume at day 0. T/C% on day 14 was determined by calculating RTV as: T/C%=100×(mean RTV of treated group)/(mean RTV of control group). The specimens in which T/C (%) was 50% or less and having a significant difference at P value 1% on one side in a Mann-Whitney U test were evaluated as effective (+).

Another series relates to WiDr colon cancer cells. Put plainly: In vivo anti-tumor experiment, WiDr human tumor xenograft (reference). To be noted: 6 days a week for two weeks, day 14. Also noted: species or system BALB/c nude mice. On the procedure:
as §4
(Xenograft models place foreign cells or tissue in a host animal.)

`C[C@@H]1CO[C@@H](C)CN1c1nc(N2CCOCC2)nc(-n2c(C(F)F)nc3ccccc32)n1` (relative stereo) [Compound 3, 2-(2-difluoromethylbenzimidazol-1-yl)-4-(trans-2,5-dimethylmorpholino)-6-morpholino-1,3,5-triazine]: the melting point (commonly the temperature of the solid-liquid transition) fell in the range of 166 to 169 °C. Moreover, growth in series [1] was halved (GI50) at 490 nM. In addition, halving of growth in the series with Hepatoma HepG2 cells (GI50) required 1120 nM. Also, the GI50 (commonly the concentration at which growth is held to half of that of the control) in the series with B16F10 melanoma cells turned out to be 1140 nM.
As for `CC1(C)CN(c2nc(N3CCOCC3)nc(-n3c(C(F)F)nc4ccccc43)n2)CCO1` [Compound 2, 2-(2-difluoromethylbenzimidazol-1-yl)-4-(2,2-dimethylmorpholino)-6-morpholino-1,3,5-triazine], the melting point lay within 176 to 178 °C. For the same molecule, growth in series [1] was halved (GI50) at 740 nM. Halving of growth in the series with Hepatoma HepG2 cells (GI50) required 1500 nM. The same molecule displayed a GI50 in the series with B16F10 melanoma cells of 950 nM.
On to `C[C@@H]1CN(c2nc(N3CCOCC3)nc(-n3c(C(F)F)nc4c(O)cccc43)n2)C[C@H](C)O1` [Compound 11, 2-(2-difluoromethyl-4-hydroxybenzimidazol-1-yl)-4-(cis-2,6-dimethylmorpholino)-6-morpholino-1,3,5-triazine], for which the melting point lay in the range of 214 to 215 °C. Besides, the “T/C (%) Prostate Cancer” value in series [2] (200 mg/kg orally once daily) was found to be 66.5%. In series [2] (400 mg/kg orally once daily), the “Evaluation effective (+), Prostate Cancer” value is “+ (T/C (%) was 50% or less and having a significant difference at P value 1% on one side in a Mann-Whitney U test were evaluated as effective (+))”; the “T/C (%) Prostate Cancer” value came to 44.3%. The “T/C (%) Colon Cancer (reference)” value in the series on WiDr colon cancer cells (200 mg/kg orally once daily) was 85.4%. Moreover, in the series with WiDr colon cancer cells (400 mg/kg orally once daily), the “T/C (%) Colon Cancer (reference)” value was 83.5%.
`CC1(C)CN(c2nc(N3CCOCC3)nc(-n3c(C(F)F)nc4c(Cl)cc(N)cc43)n2)CCO1` [Compound 12, 2-(6-amino-4-chloro-2-difluoromethylbenzimidazol-1-yl)-4-(2,2-dimethylmorpholino)-6-morpholino-1,3,5-triazine]: the melting point is 238 °C (dec.). Further, the GI50 in series [1] amounted to 100 nM. Further, the GI50 in the series on Hepatoma HepG2 cells is 260 nM. Moreover, it took 270 nM to inhibit growth with B16F10 melanoma cells by half (GI50).
